System: UCD patients
Assay: Example 3: rate of hyperammonemic crises (HACs)
Type: in vivo, human
Text: Sixteen newborn infants aged 0 to 27 days, and 10 infants and toddlers aged 28 days to 23 months received RAVICTI Oral Liquid administered just prior to breastfeeding or intake of formula or food. The recommended dosing regimen was 3-6 times per day depending on feeding schedule.
The starting dose of RAVICTI was based on UCD status (newly diagnosed, or already stable on sodium phenylbutyrate [NaPBA] and/or sodium benzoate [NaBz]) and whether a hyperammonemic crisis was present. Subsequently, the dose may have been adjusted based on clinical and/or ammonia results, according to an algorithm provided in the protocol. […]
Hyperammonemic crisis (HAC) was defined as having signs and symptoms consistent with hyperammonemia (such as, but not limited to, frequent vomiting, nausea, headache, lethargy, irritability, combativeness, and/or somnolence) associated with high blood ammonia and requiring medical intervention. Rate of HACs prior to enrollment was calculated as sum of (number of HAC)/sum of (subject age in days at the time of enrollment or 365 days, whichever was less) across all subjects in the corresponding group. Rate of HACs per 6 months during the safety extension was calculated as sum of (number of HAC)/sum of (days during first 6 months starting on Day 8 or number days on RAVICTI, whichever is less) across all subjects in the corresponding group.

O=C(CCCc1ccccc1)OCC(COC(=O)CCCc1ccccc1)OC(=O)CCCc1ccccc1 [RAVICTI, benzenebutanoic acid, 1′,1″-(1,2,3-propanetriyl) ester]
Rate of HACs (ratio) (subjects aged 0 to 27 days, 16 subjects assessed): 0.003 | Rate of HACs (ratio) (subjects aged 2 months and up to 2 years, 6 subjects assessed): 0.005

— patent publication US10668040B2, “Treatment of urea cycle disorders in neonates and infants” (Horizon Therapeutics, LLC, priority 2017, dated 2020)
